Experimental data reported in US20030125265A1, “Anti-estrogen receptor agents for chemotherapy” (priority 2001, published 2003).
Where a SMILES comes first, the peptide text is derived from it. [ ]: non-standard residue; d: D form. The star is where a group is joined. Nva = CCC[C@H](N)C(=O)O; Cbz = O=C(OCc1ccccc1)*; OtBu = CC(C)(C)O*

Tests used:
[1] = test system: Rb phosphorylation in MCF-7 cells; assay: Western blotting of Rb phosphorylation status; assay type: cell-based; details: MCF-7, in the presence of estrogen (FIG. 2B)
[2] = test system: estrogen receptor; assay: Effect of protease inhibitors on emodin-induced estrogen receptor depletion, western blot; assay type: cell-based; details: for estrogen receptor protein level with emodin plus protease inhibitor: MCF-7, 40 μM emodin simultaneously, chloroquine 100 μM, EGTA 5 mM, MG115 25 μM, PSI 25 mM (FIG. 6)
[3] = target: T1, estrogen receptor (Homo sapiens, UniProt P03372); assay: Estrogen-induced estrogen receptor degradation with proteasome inhibitor, western blot; assay type: cell-based; details: MCF-7, 10 nM estradiol, 24 hours (FIG. 5)
T1 construct: MCF-7, T47D, and ZR-75-1, which are estrogen receptor positive cell lines, were used; endogenous in cells; host or cells: MCF-7
T1 sequence (P03372 1-595): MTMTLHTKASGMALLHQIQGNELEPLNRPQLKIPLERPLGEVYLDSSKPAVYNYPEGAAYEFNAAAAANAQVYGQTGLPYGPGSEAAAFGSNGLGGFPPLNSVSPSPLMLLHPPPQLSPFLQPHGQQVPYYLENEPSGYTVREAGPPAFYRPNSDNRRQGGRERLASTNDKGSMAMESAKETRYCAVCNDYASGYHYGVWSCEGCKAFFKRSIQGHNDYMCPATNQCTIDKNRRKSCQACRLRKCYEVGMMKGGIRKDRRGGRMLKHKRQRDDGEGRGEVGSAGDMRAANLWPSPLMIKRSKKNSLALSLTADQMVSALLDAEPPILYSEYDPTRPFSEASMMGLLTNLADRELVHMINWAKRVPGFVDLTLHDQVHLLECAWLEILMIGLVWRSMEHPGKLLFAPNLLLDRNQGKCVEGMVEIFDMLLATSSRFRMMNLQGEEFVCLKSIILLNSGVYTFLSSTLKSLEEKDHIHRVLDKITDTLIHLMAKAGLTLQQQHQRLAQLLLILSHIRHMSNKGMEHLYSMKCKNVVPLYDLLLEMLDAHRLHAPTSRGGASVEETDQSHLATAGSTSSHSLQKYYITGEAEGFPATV
Protocol: For the control, ethanol and DMSO were added. The protein was extracted and quantified by western blot analysis to detect estrogen receptor and actin (for protein loading).

[4] = test system: estrogen receptor; assay: Estrogen receptor protein level by immunoblotting in MCF-7 cells
[5] = test system: estrogen receptor; assay: Pulse-chase stability of estrogen receptor protein; assay type: cell-based; details: MCF-7, 40 μM emodin, chase 1 to 4 hours (FIG. 4)
Protocol: Metabolic labeling of protein, immunoprecipitation and gel electrophoresis—MCF-7 cells were incubated for 1 h at 37° C. in methionine-free medium containing 5% dialyzed, heat-inactivated FCS, with or without emodin (40 μM). [^35S] methionine was added to yield 100 μCi/ml in the medium. Incubation was continued for an additional hour. Cells were then rinsed twice with warm, complete medium and were incubated in complete medium with or without emodin (40 μM) at various intervals. Labeled cells were lysed in RIPA-B lysis buffer. Anti-estrogen receptor antibody (D75) immunoprecipitation was performed from 500 μg total cellular protein overnight at 4° C. 20 μg of rabbit anti-rat antibody was added to the mixture and incubated for 45 minutes at 4° C. Protein A-agarose was added and incubated for 45 minutes at 4° C. The mixture was washed three times with cold PBS. […] The intensity of the proteins was quantitated by NIH Image. Results were calculated as the percentage of the controls measured at the start of the chase period.
The effect on estrogen receptor was not a consequence of cytotoxicity, because MCF-7 cell morphology, as well as viability as assessed by trypan blue exclusion, were not affected after 4 hour treatment of emodin. […] In FIG. 4C, proteins were quantitated by NIH Image software and plotted as the percentage of the value at the beginning of the chase.

[6] = test system: breast tumor development in MMTV-neu transgenic mice; assay: Chemoprevention of breast tumor development in MMTV-neu transgenic mice; assay type: in vivo; details: MMTV-proto-neu female mice, emodin 0.5 mg or 1.0 mg weekly i.p. from 15 weeks of age (FIG. 1A)
Protocol: (§1) The following example addresses whether a compound may be used as a chemoprevention agent. In a particular embodiment, emodin is tested for its use as a chemopreventive agent. Specifically, a MMTV-neu transgenic mouse model and a MMTV-v-Ha-ras transgenic mouse model were utilized to determine the effects of emodin on the development of breast tumor. In these models, the proto-neu oncogene and v-Ha-ras oncogene, respectively, were under the transcriptional control of the murine mammary tumor virus (MMTV) long terminal repeat (LTR). The transgenic mice develop multiple mammary tumors spontaneously. For FIG. 1A, MMTV-proto-neu female transgenic mice were randomly divided into three groups. […] Mice tumor development was monitored weekly. For FIG. 1B, MMTV-v-Ha-ras transgenic mice were administered emodin (n=7) (1 mg/0.2 mL) or DMSO solvent control (n=8) through i.p. injection everyday from six weeks of age.

[7] = test system: MCF-7 cells; assay: Cell morphology and viability by trypan blue exclusion; assay type: cell-based; details: MCF-7, 4 hour treatment
Protocol: The effect on estrogen receptor was not a consequence of cytotoxicity, because MCF-7 cell morphology, as well as viability as assessed by trypan blue exclusion, were not affected after 4 hour treatment of emodin. The observed decrease in estrogen receptor protein level by emodin could be explained either by diminished protein synthesis or by enhanced protein degradation. To distinguish these two possibilities, a pulse-chase experiment was performed. The cells were labeled with [^35S] methionine for 1 hour and chased for 1 to 4 hours in the presence or absence of emodin. Pulse chase experiment was performed to determine the stability of the estrogen receptor proteins after treatment with emodin (see Example 1 for experimental details). In FIG. 4A, MCF-7 cells were treated with emodin at different time intervals. In FIG. 4B, MCF-7 cells were treated with DMSO at various time intervals. In FIG. 4C, proteins were quantitated by NIH Image software and plotted as the percentage of the value at the beginning of the chase.

[8] = target: hsp90-estrogen receptor heteromeric complex (Homo sapiens, UniProt P03372); assay: Co-immunoprecipitation of hsp90 and estrogen receptor; assay type: cell-based
[9] = test system: breast tumor development in MMTV-v-Ha-ras transgenic mice; assay: Chemoprevention of breast tumor development in MMTV-v-Ha-ras transgenic mice; assay type: in vivo; details: emodin 1 mg/0.2 mL i.p. everyday from six weeks of age (FIG. 1B)
Protocol: as §1

[10] = test system: estrogen receptor; assay: Estrogen receptor protein level by immunoblotting in ZR 75-1 cells; assay type: cell-based; details: ZR 75-1, 40 μM emodin, different time intervals (FIG. 3D)
Protocol: In a specific embodiment, emodin was tested for downregulation of estrogen receptor. […] Estrogen receptor protein levels in MCF-7 cells were measured by immunoblotting with monoclonal antibody D75. The same membrane was stripped and reprobed with anti-β-actin antibody to show the protein loading. […] The proteins were quantitated by NIH Image software and plotted as the percentage control (without emodin) and normalized with actin in FIG. 3B. […] ZR75-1 estrogen receptor positive breast cancer cell lines were treated with emodin (40 μM) for different time points. Immunoblot analysis for estrogen receptor were performed.

[11] = test system: estrogen receptor; assay: Estrogen receptor protein level in T47D cells; assay type: cell-based; details: 40 μM emodin, different time intervals
[12] = test system: MCF-7 cells; assay: Thymidine incorporation, estrogen-induced DNA synthesis; assay type: cell-based; details: MCF-7, estrogen 10 nM, 20 hours; emodin 10 and 40 μM, tamoxifen 10 μM (FIG. 2A)

## 4-hydroxytamoxifen [4-hydroxy-tamoxifen, reference compound]
[1]
  Rb phosphorylation status: remained underphosphorylated

## CCC[C@@H](C=O)NC(=O)[C@H](CC(C)C)NC(=O)[C@H](CC(C)C)NC(=O)OCc1ccccc1 [MG115, carbobenzoxyl-leucinyl-leucinyl-norvalinal-II] (Cbz-Leu-Leu-[Nva]-aldehyde)
[2]
  estrogen receptor protein level with emodin plus protease inhibitor: striking suppression
[3]
  estrogen receptor level after estrogen stimulation with proteasome inhibitor: protected from degradation

## CC[C@H](C)[C@H](NC(=O)OCc1ccccc1)C(=O)N[C@@H](CCC(=O)OC(C)(C)C)C(=O)N[C@@H](C)C(=O)N[C@H](C=O)CC(C)C [PS1, N-Benzyloxycarbonyl-Ile-Glu(O-t-butyl)-Ala-leucinal] (Cbz-IE(OtBu)AL-aldehyde)
[2]
  estrogen receptor protein level with emodin plus protease inhibitor: striking suppression

## COc1ccc(/C=C(\C#N)c2cccnc2)cc1OC [RG13022, reference compound]
[4]; MCF-7, 18 hours, genistein 100 μM, RG13022 5 μM (FIG. 3C)
  estrogen receptor polypeptide level: significantly reduced

## Cc1cc(O)c2c(c1)C(=O)c1cc(O)cc(O)c1C2=O [emodin]
[4]; MCF-7, 40 μM emodin, two hours, normalized with actin (FIG. 3B)
  estrogen receptor protein level, percentage of control: […]
[4]; read-out: dose required for repressing 50% of estrogen receptor (IC50), MCF-7, 4 hours
  IC50: […]
[5]
  turnover of newly synthesized estrogen receptor: strikingly enhanced
[1]
  Rb phosphorylation status: remained underphosphorylated
[6]
  mammary tumor development: chemopreventive activity
[7]
  cell morphology and viability (trypan blue exclusion): not affected
[8]; MCF-7, 40 μM emodin (FIG. 7A)
  amount of hsp90-bound estrogen receptor: markedly increased
[8]; MCF-7, 40 μM emodin (FIG. 7B)
  cellular levels of hsp90: remained unchanged
[9]
  mammary tumor development: chemopreventive activity
[2]; MCF-7, 40 μM emodin alone (FIG. 6)
  estrogen receptor protein level: decreased rapidly
[10]
  depletion of estrogen receptor polypeptide: enhance the depletion
[11]
  depletion of estrogen receptor polypeptide: enhance the depletion
[12]
  estrogen stimulated DNA synthesis (thymidine incorporation): […]

## CC/C(=C(\c1ccccc1)c1ccc(OCCN(C)C)cc1)c1ccccc1 [tamoxifen, reference compound]
[12]
  estrogen stimulated DNA synthesis (thymidine incorporation): inhibit
